Data: patent US20260262643A1, “HERBICIDAL BENZOXAZINES” (FMC CORPORATION, priority 2022, published 2026)

Key:
[1] = system: barnyardgrass; test: Test C preemergence; type: in vivo, Echinochloa crusgalli
Summary of the method: (§1)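 Seeds in loam–sand blend received preemergence directed soil spray of test chemicals in non-phytotoxic solvent with surfactant; postemergence treatment was applied at one- to two-leaf stage (2–10 cm). After 10 days in greenhouse, injury rated visually versus untreated controls, 0 (no effect) to 100 (complete control).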

[2] = system: blackgrass; test: Test C preemergence; type: in vivo, Alopecurus myosuroides
Summary of the method: as §1

[3] = system: corn; test: Test C preemergence; type: in vivo, Zea mays
Summary of the method: as §1

[4] = system: foxtail, giant; test: Test C preemergence; type: in vivo, Setaria faberi
Summary of the method: as §1

[5] = system: kochia; test: Test C preemergence; type: in vivo, Bassia scoparia
Summary of the method: as §1

[6] = system: oat, wild; test: Test C preemergence; type: in vivo, Avena fatua
Summary of the method: as §1

[7] = system: pigweed, palmer; test: Test C preemergence; type: in vivo, Amaranthus palmeri
Summary of the method: as §1

[8] = system: ragweed; test: Test C preemergence; type: in vivo, Ambrosia artemisiifolia
Summary of the method: as §1

[9] = system: ryegrass, Italian; test: Test C preemergence; type: in vivo, Lolium multiflorum
Summary of the method: as §1

[10] = system: soybean; test: Test C preemergence; type: in vivo, Glycine max
Summary of the method: as §1

[11] = system: wheat; test: Test C preemergence; type: in vivo, Triticum aestivum
Summary of the method: as §1

[12] = system: barnyardgrass; test: Test C postemergence; type: in vivo, Echinochloa crusgalli; conditions: 10 days, 0 to 100 scale (0 no effect, 100 complete control)
Summary of the method: as §1

[13] = system: blackgrass; test: Test C postemergence; type: in vivo, Alopecurus myosuroides; conditions: 10 days, 0 to 100 scale (0 no effect, 100 complete control)
Summary of the method: as §1

[14] = system: corn; test: Test C postemergence; type: in vivo, Zea mays; conditions: 10 days, 0 to 100 scale (0 no effect, 100 complete control)
Summary of the method: as §1

[15] = system: foxtail, giant; test: Test C postemergence; type: in vivo, Setaria faberi; conditions: 10 days, 0 to 100 scale (0 no effect, 100 complete control)
Summary of the method: as §1

[16] = system: kochia; test: Test C postemergence; type: in vivo, Bassia scoparia; conditions: 10 days, 0 to 100 scale (0 no effect, 100 complete control)
Summary of the method: as §1

[17] = system: oat, wild; test: Test C postemergence; type: in vivo, Avena fatua; conditions: 10 days, 0 to 100 scale (0 no effect, 100 complete control)
Summary of the method: as §1

[18] = system: pigweed, palmer; test: Test C postemergence; type: in vivo, Amaranthus palmeri; conditions: 10 days, 0 to 100 scale (0 no effect, 100 complete control)
Summary of the method: as §1

[19] = system: ragweed; test: Test C postemergence; type: in vivo, Ambrosia artemisiifolia; conditions: 10 days, 0 to 100 scale (0 no effect, 100 complete control)
Summary of the method: as §1

[20] = system: ryegrass, Italian; test: Test C postemergence; type: in vivo, Lolium multiflorum; conditions: 10 days, 0 to 100 scale (0 no effect, 100 complete control)
Summary of the method: as §1

[21] = system: soybean; test: Test C postemergence; type: in vivo, Glycine max; conditions: 10 days, 0 to 100 scale (0 no effect, 100 complete control)
Summary of the method: as §1

[22] = system: wheat; test: Test C postemergence; type: in vivo, Triticum aestivum; conditions: 10 days, 0 to 100 scale (0 no effect, 100 complete control)
Summary of the method: as §1

[23] = system: galium; test: Test C postemergence; type: in vivo, Galium aparine; conditions: 10 days, 0 to 100 scale (0 no effect, 100 complete control)
Summary of the method: as §1

[24] = system: horseweed; test: Test C postemergence; type: in vivo, Erigeron canadensis; conditions: 10 days, 0 to 100 scale (0 no effect, 100 complete control)
Summary of the method: as §1

[25] = system: barnyardgrass; test: Test D flooded paddy test; type: in vivo, Echinochloa crus-galli; conditions: 250 g ai/ha, applied to paddy water, visual rating after 13 to 14 days, scale 0 to 100 (0 no effect, 100 complete control)
Summary of the method: (§2)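 Visual ratings from 0, meaning no effect, to 100, meaning complete control, were assigned against untreated controls 13 to 14 days after compounds were added to the floodwater of pots kept 3 cm deep, with plants at the 2-leaf stage.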

[26] = system: ducksalad; test: Test D flooded paddy test; type: in vivo, Heteranthera limosa; conditions: 250 g ai/ha, applied to paddy water, visual rating after 13 to 14 days, scale 0 to 100 (0 no effect, 100 complete control)
Summary of the method: as §2

[27] = system: rice; test: Test D flooded paddy test; type: in vivo, Oryza sativa; conditions: 250 g ai/ha, applied to paddy water, visual rating after 13 to 14 days, scale 0 to 100 (0 no effect, 100 complete control)
Summary of the method: as §2

[28] = system: sedge, umbrella; test: Test D flooded paddy test; type: in vivo, Cyperus difformis; conditions: 250 g ai/ha, applied to paddy water, visual rating after 13 to 14 days, scale 0 to 100 (0 no effect, 100 complete control)
Summary of the method: as §2

[29] = 500 g ai/ha, preemergence, 0 to 100 scale (0 no effect, 100 complete control)
[30] = Preemergence, 125 g ai/ha, 0 to 100 scale, 0 no effect, 100 complete control

## CC(C)c1ncn(-c2cc(C(=O)N3CC(C(F)(F)F)Oc4c(Cl)cccc43)ccn2)n1 (racemic) [Compound 329]
[1]; [29]
  Barnyardgrass plant response rating: 100
[1]; [30]
  Plant response rating, Barnyardgrass: 70
[2]; [29]
  Blackgrass plant response rating: 80
[2]; [30]
  Plant response rating, Blackgrass: 60
[3]; [29]
  Corn plant response rating: 40
[3]; [30]
  Plant response rating, Corn: 20
[4]; [29]
  Foxtail, Giant plant response rating: 100
[4]; [30]
  Plant response rating, Foxtail, Giant: 100
[5]; [29]
  Kochia plant response rating: 100
[5]; [30]
  Plant response rating, Kochia: 40
[6]; [29]
  Oat, Wild plant response rating: 80
[6]; [30]
  Plant response rating, Oat, Wild: 30
[7]; [29]
  Pigweed, Palmer plant response rating: 100
[7]; [30]
  Plant response rating, Pigweed, Palmer: 90
[8]; [29]
  Ragweed plant response rating: 60
[8]; [30]
  Plant response rating, Ragweed: 0
[9]; [29]
  Ryegrass, Italian plant response rating: 100
[9]; [30]
  Plant response rating, Ryegrass, Italian: 70
[10]; [29]
  Soybean plant response rating: 80
[10]; [30]
  Plant response rating, Soybean: 0
[11]; [29]
  Wheat plant response rating: 30
[11]; [30]
  Plant response rating, Wheat: 10
[12]; 500 g ai/ha, postemergence
  Plant response rating, Barnyardgrass: 60
[12]; Postemergence, 125 g ai/ha
  Plant response rating, Barnyardgrass: 10
[13]; 500 g ai/ha, postemergence
  Plant response rating, Blackgrass: 90
[13]; Postemergence, 125 g ai/ha
  Plant response rating, Blackgrass: 50
[14]; 500 g ai/ha, postemergence
  Plant response rating, Corn: 80
[14]; Postemergence, 125 g ai/ha
  Plant response rating, Corn: 30
[15]; 500 g ai/ha, postemergence
  Plant response rating, Foxtail, Giant: 90
[15]; Postemergence, 125 g ai/ha
  Plant response rating, Foxtail, Giant: 50
[16]; 500 g ai/ha, postemergence
  Plant response rating, Kochia: 90
[16]; Postemergence, 125 g ai/ha
  Plant response rating, Kochia: 70
[17]; 500 g ai/ha, postemergence
  Plant response rating, Oat, Wild: 80
[17]; Postemergence, 125 g ai/ha
  Plant response rating, Oat, Wild: 30
[18]; 500 g ai/ha, postemergence
  Plant response rating, Pigweed, Palmer: 80
[18]; Postemergence, 125 g ai/ha
  Plant response rating, Pigweed, Palmer: 20
[19]; 500 g ai/ha, postemergence
  Plant response rating, Ragweed: 40
[19]; Postemergence, 125 g ai/ha
  Plant response rating, Ragweed: 40
[20]; 500 g ai/ha, postemergence
  Plant response rating, Ryegrass, Italian: 70
[20]; Postemergence, 125 g ai/ha
  Plant response rating, Ryegrass, Italian: 50
[21]; 500 g ai/ha, postemergence
  Plant response rating, Soybean: 100
[21]; Postemergence, 125 g ai/ha
  Plant response rating, Soybean: 100
[22]; 500 g ai/ha, postemergence
  Plant response rating, Wheat: 50
[22]; Postemergence, 125 g ai/ha
  Plant response rating, Wheat: 20
[23]; 500 g ai/ha, postemergence
  Plant response rating, Galium: 100
[23]; Postemergence, 125 g ai/ha
  Plant response rating, Galium: 60
[24]; 500 g ai/ha, postemergence
  Plant response rating, Horseweed: 0
[24]; Postemergence, 125 g ai/ha
  Plant response rating, Horseweed: 0
[25]
  Plant response rating, Barnyardgrass (Flood): 0
[26]
  Plant response rating, Ducksalad (Flood): 0
[27]
  Plant response rating, Rice (Flood): 0
[28]
  Plant response rating, Sedge, Umbrella (Flood): 0
